# How the values were obtained:
# [1] = system: Pseudomonas aeruginosa (ATCC 27853); experiment: Sensitization to novobiocin, Pseudomonas aeruginosa (ATCC 27853); format: cell-based; settings: Table 8; P. aureginosa (ATCC 27853)
# Protocol: (§1) Alternatively, “fractional inhibitory concentration (FIC)” is also useful for determination of synergy between the compounds of the invention, or the compounds in combination with known antibiotics. FICs can be performed by checkerboard titrations of compounds in one dimension of a microtiter plate, and of antibiotics in the other dimension, for example. The FIC is calculated by looking at the impact of one antibiotic on the MIC of the other and vice versa. […] Preferably, an FIC of less than 0.5 is obtained for synergism. As used herein, FIC can be determined as follows:
# (§2) Aliquots of 1 mL of the suspension were added to test tubes containing 1 mL TSB and incrementally varied concentrations of cholic acid derivatives and/or erythromycin or novobiocin. In the sensitization experiments, erythromycin or novobiocin were added 15 minutes later than the cholic acid derivatives. The samples were subjected to stationary incubation at 37° C. for 24 hours. Sample turbidity was determined by measuring absorption at 760 nm (HP 8453 UV-Visible Chemstation, Hewlett Packard). Additionally, an alliquot from each of the samples showing no measurable turbidity was subcultured on TSA plates (alliquots were diluted to provide fewer than 300 CFU). Colonies that grew on the subculture after overnight incubation were counted and the number of CFU/mL in the samples were calculated. The calculated values were compared to the number of CFU/mL in the original inoculum. […]
# (§3) To measure permeabilization, the FIC values for compounds 1, 2, 5, 106, 10, 112, 133, and 134 with erythromycin, novobiocin, and rifampicin were determined. Concentrations of 0.5, 1.0 or 3.0 μg/mL of these antibiotics were used, and the concentrations of the cholic acid derivatives required to inhibit bacterial growth of Gram-negative strains were determined.
# [2] = system: E. coli (ATCC 10798); experiment: Sensitization to novobiocin (concentration lowering the MIC of novobiocin), E. coli (ATCC 10798); format: cell-based, Escherichia coli; settings: Table 3, E. coli (ATCC 10798)
# Protocol: as §1
# (§4) Aliquots of 1 mL of the suspension were added to test tubes containing 1 mL TSB and incrementally varied concentrations of cholic acid derivatives and/or erythromycin or novobiocin. In the sensitization experiments, erythromycin or novobiocin were added 15 minutes later than the cholic acid derivatives. The samples were subjected to stationary incubation at 37° C. for 24 hours. Sample turbidity was determined by measuring absorption at 760 nm (HP 8453 UV-Visible Chemstation, Hewlett Packard). Additionally, an alliquot from each of the samples showing no measurable turbidity was subcultured on TSA plates (alliquots were diluted to provide fewer than 300 CFU). Colonies that grew on the subculture after overnight incubation were counted and the number of CFU/mL in the samples were calculated. The calculated values were compared to the number of CFU/mL in the original inoculum.
# (§5) Ability to permeabilize outer membrane: Compounds 11, 106, and 108-114 (FIG. 1) were tested for antibiotic activity. They were also tested for the ability to permeabilize the outer membrane of Gram-negative bacteria, causing sensitization to hydrophobic antibiotics that cannot cross the outer membrane. The permeabilization of the outer membrane was measured using erythromycin and novobiocin.
# (§6) The MICs of erythromycin and novobiocin against E. coli (ATCC 10798) at 70 and >500 μg/mL were measured.
# [3] = system: Salmonella typhimurium ATCC 14028; experiment: MIC and MBC measurement with Salmonella typhimurium ATCC 14028; format: cell-based; settings: Table 10
# From the text: (§7) General: Microorganisms. Reference strains were purchased from the American Type Culture Collection (Rockville, Md.) or Bactrol disks from Difeo Laboratories (Detroit, Mich.). The following specific ATCC strains were used: 10798 Escherichia coli, 25922 Escherichia coli, 13883 Klebsiella pneumoniae, 27853 Pseudomonas aeruginosa, 14028 Salmonella typhimurium, 29212 Enterococcus faecalis, 25923 Staphylococcus aureus, 19615 Streptococcus pyogenes, and 90028 Candida albicans. Bacterial strains were maintained on Mueller-Hinton agar plates, and Candida albicans was maintained on Sabouraud Dextrose agar plates.
# (§8) Tryptic soy broth (TSB) was made by dissolving 27.5 grams of tryptic soy broth without dextrose (DIFCO Laboratories) in 1 liter of deionized water and sterilizing at 121° C. for 15 minutes. Solid agar (TSA) plates were made by dissolving 6.4 grams of tryptic soy broth and 12 grams of agar (purified grade, Fischer Scientific) in 800 mL of deionized water and sterilizing at 121° C. for 20 minutes. Aliquots (20 mL) of the homogeneous solution were then poured in sterile plastic petri dishes (100×15 mm, Fisher Scientific). Solutions of compounds were made by dissolving the HCl salt of the respective compound into an appropriate amount of deionized and sterilized water followed by microfiltration.
# as §4
# [4] = system: Enterococcus faecalis ATCC 29212; experiment: MIC and MBC measurement with Enterococcus faecalis ATCC 29212; format: cell-based; settings: Table 10
# From the text: as §7, §8, §4
# [5] = system: E. coli (ATCC 10798); experiment: MIC and MBC measurement with E. coli (ATCC 10798); format: cell-based, Escherichia coli
# From the text: as §7, §8, §4
# [6] = system: Klebsiella pneumonia ATCC 13883; experiment: MIC and MBC measurement with Klebsiella pneumoniae ATCC 13883; format: cell-based; settings: Table 10
# From the text: as §7, §8, §4
# [7] = system: Pseudomonas aeruginosa (ATCC 27853); experiment: MIC and MBC measurement with Pseudomonas aeruginosa (ATCC 27853); format: cell-based
# From the text: as §7, §8, §4
# [8] = system: Streptococcus pyrogenes ATCC 19615; experiment: MIC and MBC measurement with Streptococcus pyogenes ATCC 19615; format: cell-based; settings: Table 10
# From the text: as §7, §8, §4
# [9] = system: E. coli (ATCC 25922); experiment: MIC and MBC measurement with E. coli (ATCC 25922); format: cell-based, Escherichia coli
# From the text: as §7, §8, §2
# [10] = system: Candida albicans ATCC 90028; experiment: MIC and MBC measurement with Candida albicans ATCC 90028; format: cell-based; settings: Table 10
# From the text: as §7, §8, §4
# [11] = system: E. coli (ATCC 25922); experiment: Sensitization to erythromycin, E. coli (ATCC 25922); format: cell-based, Escherichia coli; settings: for FIC / concentration required to inhibit bacterial growth with antibiotic: Table 11, Escherichia coli ATCC 25922; for FIC: erythromycin (by order); for concentration required to inhibit bacterial growth with antibiotic: erythromycin (by order) at 0.5, 1.0 or 3.0 μg/mL
# Protocol: FICs can be performed by checkerboard titrations of compounds in one dimension of a microtiter plate, and of antibiotics in the other dimension, for example. The FIC is calculated by looking at the impact of one antibiotic on the MIC of the other and vice versa. […] Preferably, an FIC of less than 0.5 is obtained for synergism. As used herein, FIC can be determined as follows:
# as §4
# Concentrations of 0.5, 1.0 or 3.0 μg/mL of these antibiotics were used, and the concentrations of the cholic acid derivatives required to inhibit bacterial growth of Gram-negative strains were determined.
# (§9) Minimum inhibition concentrations (MIC) and minimum hemolytic concentrations (MHC) were measured as described in Li et al., Antimicrob. Agents. Chemother., 1999, 43, 1347.
# [12] = system: Pseudomonas aeruginosa (ATCC 27853); experiment: Sensitization to erythromycin, Pseudomonas aeruginosa (ATCC 27853); format: cell-based; settings: for FIC / concentration required to inhibit bacterial growth with antibiotic: Table 11, Pseudomonas aeruginosa ATCC 27853; for FIC: erythromycin (by order); for concentration required to inhibit bacterial growth with antibiotic: erythromycin (by order) at 0.5, 1.0 or 3.0 μg/mL
# Protocol: as §1, §2, §3
# [13] = system: E. coli (ATCC 10798); experiment: Sensitization to erythromycin (concentration lowering the MIC of erythromycin), E. coli (ATCC 10798); format: cell-based, Escherichia coli; settings: Table 2, E. coli (ATCC 10798)
# Protocol: as §1, §4, §5, §6
# [14] = Protocol: as §9
# [15] = system: Staphylococcus aureus ATCC 25923; experiment: MIC and MBC measurement with Staphylococcus aureus ATCC 25923; format: cell-based; settings: Table 10; Staphylococcus aureus ATCC 25923
# From the text: as §7, §8, §2
# [16] = system: Gram-negative bacteria; experiment: Sensitization to novobiocin, ester and amide side chain compounds (Table 14); format: cell-based; settings: strain not given
# Protocol: as §4, §5
# (§10) Ester and amide side chains: Additional compounds, for example, compounds with amide and ester side chains, were tested.
# [17] = system: Gram-negative bacteria; experiment: Sensitization to erythromycin, ester and amide side chain compounds (Table 14); format: cell-based; settings: Table 14; strain not given
# Protocol: as §4, §5, §10
# [18] = system: Gram-negative bacteria; experiment: MIC of ester and amide side chain compounds (Table 14); format: cell-based; settings: strain not given
# Protocol: as §4, §10
# [19] = Table 6, P. aureginosa (ATCC 27853)
# [20] = Table 10, Pseudomonas aeruginosa ATCC 27853
# [21] = Table 10, Escherichia coli ATCC 25922
SMILES,MBC [3],MIC [3],MBC [4],MIC [4],MBC [6],MIC [6],"MBC [7, 20]","MIC [7, 20]",MBC [8],MIC [8],"MBC [9, 21]","MIC [9, 21]",MBC [10],MIC [10],FIC [11],concentration required to inhibit bacterial growth with antibiotic [11],FIC [12],concentration required to inhibit bacterial growth with antibiotic [12],MHC [14],MBC [15],also measured
C[C@H](CCCN(C)Cc1ccccc1)[C@H]1CC[C@H]2[C@@H]3[C@H](OCCCNC(=N)N)C[C@@H]4C[C@H](OCCCNC(=N)N)CC[C@]4(C)[C@H]3C[C@H](OCCCNC(=N)N)[C@]12C [Compound 5],3.8 µg/mL,2.2 µg/mL,16 µg/mL,2.2 µg/mL,6.7 µg/mL,3.0 µg/mL,9.9 µg/mL,5.9 µg/mL,2.1 µg/mL,2.0 µg/mL,3.8 µg/mL,1.4 µg/mL,50 µg/mL,11 µg/mL,0.31,0.38 µg/mL,0.42,2.3 µg/mL,26 µg/mL,3.2 µg/mL,"MIC: concentration required to lower the MIC of novobiocin from >500 μg/mL to 1 μg/mL [1]: 6 µg/mL; MIC: concentration required to lower the MIC of novobiocin from >500 μg/mL to 1 μg/mL [2]: 2 µg/mL; MBC (with novobiocin) ([2]; novobiocin sensitization): 4 µg/mL; MBC ([5]; Table 1, E. coli (ATCC 10798)): 4 µg/mL; MIC ([5]; Table 1, E. coli (ATCC 10798)): 2 µg/mL; MBC [7, 19]: 15 µg/mL; MIC [7, 19]: 6 µg/mL; MBC ([9]; Table 4, E. coli (ATCC 25922)): 4 µg/mL; MIC ([9]; Table 4, E. coli (ATCC 25922)): 2 µg/mL; MIC: concentration required to lower the MIC of erythromycin from 60 μg/mL to 1 μg/mL ([11]; Table 5, E. coli (ATCC 25922)): 1.5 µg/mL; MBC (with erythromycin) ([11]; Table 5, E. coli (ATCC 25922), erythromycin sensitization): 1.5 µg/mL; MIC: concentration required to lower the MIC of erythromycin from 240 μg/mL to 5 μg/mL ([12]; Table 7, P. aureginosa (ATCC 27853)): 3 µg/mL; MBC (with erythromycin) ([12]; Table 7, P. aureginosa (ATCC 27853), erythromycin sensitization): 10 µg/mL; MIC: concentration required to lower the MIC of erythromycin from 70 μg/mL to 1 μg/mL [13]: 1 µg/mL; MBC (with erythromycin) ([13]; erythromycin sensitization): 3 µg/mL; MIC [15]: 0.6 µg/mL"
CC(CCCO)C1CCC2C3C(NC(=O)C(N)CCCCN)CC4CC(NC(=O)C(N)CCCCN)CCC4(C)C3CC(NC(=O)C(N)CCCCN)C12C (stereo not shown) [Compound 209c],,,,,,,,,,,,,,,,,,,,,b: concentration of cholic acid derivatives required to lower MIC of novobiocin to 1 μg/ML [16]: 60 µg/mL; a: concentration of cholic acid derivatives required to lower MIC of erythromycin to 1 μg/ML [17]: 45 µg/mL; MIC [18]: 85 µg/mL
CCCCCCCCNCCC[C@@H](C)[C@H]1CC[C@H]2[C@@H]3[C@H](OCCCNC(=N)N)C[C@@H]4C[C@H](OCCCNC(=N)N)CC[C@]4(C)[C@H]3C[C@H](OCCCNC(=N)N)[C@]12C [Compound 134],1.8 µg/mL,0.81 µg/mL,5.8 µg/mL,3.0 µg/mL,3.0 µg/mL,0.84 µg/mL,2.9 µg/mL,2.0 µg/mL,3.5 µg/mL,3.5 µg/mL,0.37 µg/mL,0.31 µg/mL,76 µg/mL,53 µg/mL,0.36,0.37 µg/mL,0.42,0.70 µg/mL,9.0 µg/mL,1.4 µg/mL,"MIC (in words) ([5]; FIG. 5, strain not named): very low; MIC [15]: 0.59 µg/mL"
